Data set [1] concerns adenine aggregation in aah1Δapt1Δ cells. In words: Flow cytometry with ProteoStat staining of salvage mutant. Particulars: adenine in media, TA 0.5 mM. The class given is cell-based, Saccharomyces cerevisiae. Here is the method:
An amount of 1 mL of logarithmic cells were washed with PBS buffer and sonicated using 15 s pulses at 20% power. For each sample, 2*10^6 cells were resuspended with ProteoStat dye (Enzo Life Sciences) diluted 1:3000 in ProteoStat assay buffer. Cells were incubated for 15 min at room temperature protected from light. Flow cytometry was preformed using Stratedigm S1000EXi and the CellCapTure software (Stratedigm, San Jose, Calif.). Live cells were gated (P1) by forward scatter and side scatter. Fluorescence channels for FITC (530/30) and PE-Cy5 (676/29) were used utilizing a 488 nm laser source. A total of 50,000 events were acquired for each sample. Analyses were performed using FlowJo software (TreeStar, version 10).
(In flow cytometry, cells or beads pass a laser one at a time.)

The subject of another data set is phenylalanine assemblies. The following applies: reference [4]; cited from earlier work.
In a further data set the test system is cys4Δ strain. Nature of the data set: Yeast growth assay of cys4Δ mutant with homocysteine. The following applies: 13 mg/L cysteine, 80 mg/L homocysteine, 0.3 mM TA. The class given is cell-based, Saccharomyces cerevisiae. The method, then:
FIG. 27E: WT and cys4Δ strains diluted to OD600 0.01 were grown in SD media containing 13 mg/L cysteine and 80 mg/L homocysteine in the under the indicated conditions. 0.3 mM TA was added to the samples at different OD600. The percentage of growth represents the growth the indicated condition compared to the growth of WT without TA. *P<0.05 (Student's t-test).
Homocystinuria results from cystathionine beta synthase (CBS) deficiency, leading to excess of Hcy. A knockout mutation in CYS4, the highly-conserved functional yeast ortholog of the human cystathionine beta synthase (CBS) known to be essential for Hcy salvage, was therefore generated. Due to the contribution of this enzyme to cysteine biosynthesis, it was first shown that its absence confers cysteine dependence (FIG. 27A). […] To examine whether the observed toxicity was associated with the in vivo formation of amyloid-like assemblies, the cells were stained with the amyloid-specific fluorescent dye ProteoStat which allows to detect intracellular amyloid fibrils. […] Next, to further establish the amyloid-like nature of the aggregates, the fibrillation-modifying polyphenolic compound tannic acid (TA) was used (FIG. 27E).

In data set [2] the test system is aah1Δapt1Δ cells. Nature of the data set: Confocal microscopy with ProteoStat staining of salvage mutant. The class given is cell-based, Saccharomyces cerevisiae. Particulars: adenine in media, TA 0.5 mM. Here is the method: An amount of 1 mL of logarithmic cells were washed with PBS buffer, sonicated using 15 s pulses at 20% power and resuspended in 50 μL of ProtesoStat dye diluted 1:250 in ProteoStat assay buffer. Cells were incubated for 15 min at room temperature protected from light. 10 μL of each sample was deposited on poly-lysine coated glass slides (Sigma-Aldrich). Cells were imaged using Leica TCS SP8 laser confocal microscope with 63×1.4 NA or 100*1.4 NA oil objectives. To visualize the nuclei, Hoechst (33342; ImmunoChimestry) was used. An argon laser with 488 excitation line was used for ProteoStat (emission wavelength, 500 to 600 nm), and a 405 UV laser was used to excite Hoechst fluorescence (emission wavelength, 415 to 450 nm).

Another data set deals with aah1Δapt1Δ strain. In words: Yeast growth assay of adenine salvage mutant with adenine feeding. The data set is classed as cell-based, Saccharomyces cerevisiae. The method, then:
(§1) Strains were grown over night at 30° C. in SD medium without adenine. For spotting assays, strains were diluted to 6.25*10^7 cells/mL and were then 5-fold serially diluted and spotted on SD media with the indicated concentrations of adenine or TA (Sigma-Aldrich). Plates were incubated at 30° C. for 2 days. […] For OD600 measurements, strains were diluted to OD600 0.01, 200 μL of cells were platted on 96 wells plates and incubated at 30° C. for 25 hours with continuous shaking. OD600 was measured using Tecan™ SPARK 10M plate reader.
For the percentage of growth analysis (FIG. 10B and FIG. 13A), OD600 was measured when cells reached log phase. The percentage of growth represents the growth with TA compared to the growth without TA.

Data set [3] has as its system aah1Δapt1Δ cells. Nature of the data set: LC-MS detection of TA and adenine inside cells. The following applies: cells grown in SD medium containing adenine and TA. The data set is classed as cell-based, Saccharomyces cerevisiae. The method, then: 100 ml of cells at the logarithmic phase were centrifuged and washed three times with PBS. 1 ml of the growth medium and of each wash were collected for LC-MS analysis. After the third wash, the pellet was resuspended in PBS together with acid-washed glass beads. Tubes were vortexed for 45 minutes in 4° C. using disruptor-genie. Cell debris and soluble material were separated by centrifugation. Both fractions as well as the medium and washes were analyzed by MS. The pellet was resuspended in 200 μl DMSO, heated for 5 minutes at 85° C. and sonicated for 5 minutes at 40° C. The lysis mixture was centrifuged at 6000 rpm for 10 minutes. 150 μl of the lysate were transferred to a Waters 96 well ACQUITY collection plate for LC-MS analysis. 20 μl of each sample were injected to Waters Autopurification system analytical module equipped with SQD2 MS detector at the following conditions: a. LC: Waters XSelect Peptide CSH C18 column (5 μm, 4.6 mm×100 mm) using a 10 minute gradient from 95:5 Water:acetonitrile (both with 0.1% formic acid) to acetonitrile (0.1% formic acid); b. MS: acquisition parameters were optimized in order to select the proper ion for selected ion monitoring (SIR) experiments.

The test system of the next data set is wild-type strain. In words: Yeast growth assay of wild-type strain. The class given is cell-based, Saccharomyces cerevisiae. Particulars: 13 mg/L cysteine, 80 mg/L homocysteine, 0.3 mM TA. Here is the method: as §1
The next data set relates to adenine fibrils. The following applies: previously demonstrated, reference [4]; cited from earlier work.
In data set [4] the test system is adenosine aggregates in ADA deficient LCLs. In words: Aggregation assay (Proteostat, FACS) on ADA deficient LCLs. The data set is classed as cell-based, human. The following applies: adenosine 200 μg/ml, 72 hours. Here is the method: 24 hours after seeding in full medium cells were washed with medium without serum and placed in medium without serum. Following 72 hours of incubation with or without Adenosine (A9251 SIGMA) (200 ug/ml), cells were washed with PBS and stained for adenosine aggregates with Proteostat dye (ENZ-51023-KP002). Proteostat concentration was 1:3000 of diluted stock. Following 15 minutes' incubation, cells were washed with PBS and mean fluorescence was measured with FACS.
Cells were treated with adenosine alone or with adenosine with compounds. Compound activity was tested in 19 concentrations in range from 50 uM to 0.003 uM.
Readouts: Proteostat Fluorescence intensity was measured with FACS at 2 excitation wavelengths: 488 nm and 550 nm. Emission wavelength was 600 nm.
24 hours after seeding in 96 round bottom plates in full medium cells were washed once with medium without serum and placed in medium without serum. Following 72 hours of incubation with or without Adenosine (200 ug/ml) and with or without purpurin (2 uM), cells were washed once with PBS and stained for adenosine aggregates with Proteostat dye (Enzo Life Sciences). Proteostat concentration was 1:4000 of diluted stock. Following 15 minutes incubation, cells were washed with PBS and mean flow cytometry was preformed using Stratedigm S1000EXi and the CellCapTure software (Stratedigm, San Jose, Calif.). Analyses were performed using FlowJo software (TreeStar, version 10).
For quantification of intracellular adenosine aggregates by FACS analyses, 100,000 cells were seeded in 96 well plates in full medium. After 24 hours, cells were centrifuged, washed once and added with serum free medium with or without Adenosine (200 μg/ml). After incubation of 72 hours cells were washed with PBS and stained for adenosine aggregates with Proteostat dye. Following 15 minutes incubation, cells were washed with PBS and mean fluorescence was measured with FACS. Mean cell fluorescence of every cell line was normalized to its signal without adenosine and data is presented as percentage of aggregates.

A further data set concerns ADA deficient LCLs. In words: LCLs survival assay (XTT), ADA deficient LCLs. The data set is classed as cell-based, human. Particulars: adenosine 300 μg/ml, XTT. The method, then:
(§2) 24 hours after seeding in 96 round bottom plates in full medium cells were washed once with medium without serum and placed in medium without serum. Following 72 hours of incubation with or without Adenosine (200 ug/ml) and with or without purpurin (2 uM), XTT based cell viability assay was performed. Absorbance was measured with Tecan™ SPARK 10M plate reader.
(§3) In order to assess the toxic effect of adenosine aggregates, XTT based cell viability assays were performed on healthy and ADA deficient LCLs. Cells went through similar procedure as described above except adenosine was at 300 μg/ml. Survival percentage was calculated as absorbance with adenosine divided by absorbance without adenosine. […] Moreover. 4 out of 5 ADA deficient cell lines display less than 20% survival (FIG. 15B cell lines 7,8,9,11,12).
For orientation: Tetrazolium dyes change colour on reduction, which living cells bring about.

The next data set relates to healthy LCLs. Nature of the data set: LCLs survival assay (XTT), healthy LCLs. The data set is classed as cell-based, human. Particulars: adenosine 300 μg/ml. The method, then:
as §2, §3

Consider `O=C(OC[C@H]1O[C@@H](OC(=O)c2cc(O)c(O)c(OC(=O)c3cc(O)c(O)c(O)c3)c2)[C@H](OC(=O)c2cc(O)c(O)c(OC(=O)c3cc(O)c(O)c(O)c3)c2)[C@@H](OC(=O)c2cc(O)c(O)c(OC(=O)c3cc(O)c(O)c(O)c3)c2)[C@@H]1OC(=O)c1cc(O)c(O)c(OC(=O)c2cc(O)c(O)c(O)c2)c1)c1cc(O)c(O)c(OC(=O)c2cc(O)c(O)c(O)c2)c1` [TA, Tannic acid], for which the “metabolite aggregation (ProteoStat, flow cytometry)” value in data set [1] is “decrease in metabolite aggregation”. The “phenylalanine aggregation and cytotoxicity of the assemblies in vitro” value in the data set on phenylalanine assemblies was “counteract”. Also, in the data set on cys4Δ strain, the “growth inhibition of the salvage mutant strain in the presence of Hcy” value is listed as “significantly ameliorated the growth inhibition”. Besides, the “ProteoStat stained dots (confocal microscopy)” value in the data set on aah1Δapt1Δ cells [2] is “absence of the stained dots”. The “formation of adenine amyloid-like assemblies / growth, inhibitor added at earlier time points” value in the data set with aah1Δapt1Δ strain (0.5 mM TA added at earlier time points of yeast growth) was “hinder the formation of adenine amyloid-like assemblies”. For the same compound, in the data set with aah1Δapt1Δ strain (0.5 mM TA added at later stages of yeast growth), the “growth, inhibitor added at later stages” value was “no effect on their growth”. Further, in the data set on aah1Δapt1Δ strain (in the presence of adenine, TA added to the yeast media at various concentrations), the “cell growth of the salvage mutant” value is listed as “clearly improved cell growth of the salvage mutant in a dose-dependent manner”. The “presence inside the cell (LC-MS)” value in the data set on aah1Δapt1Δ cells [3] was “detected inside the cell”. The “growth of wild-type strain” value in the data set with wild-type strain is given as “no effect was observed”. Further, in the data set on adenine fibrils, the “adenine self-assembly in vitro” value was “inhibition of adenine self-assembly in vitro”.

On to `Nc1ncnc2c1ncn2[C@@H]1O[C@H](CO)[C@@H](O)[C@H]1O` [adenosine, Adenosine], for which the “Proteostat staining of ADA deficient LCLs compared to healthy LCLs” value in data set [4] is reported as 2-3 fold. In addition, in the data set on ADA deficient LCLs, the “survival of ADA deficient LCLs in the presence of adenosine” value is “below 40%” and the “survival, 4 out of 5 ADA deficient cell lines” value is listed as “less than 20%”. Moreover, in the data set with healthy LCLs, the “survival of healthy LCLs in the presence of adenosine” value is recorded as “above 70%”.

Source of the values: patent US20210381022A1, “INTEGRATED DRUG DISCOVERY PLATFORM FOR INBORN ERROR OF METABOLISM DISORDERS” (RAMOT AT TEL-AVIV UNIVERSITY LTD., priority 2018, published 2021).
